The format of data set [1] is physicochemical. The settings on record: for Further dilution in Mannitol:Water Solubility: FCP 0.167 mM, 1.33% (w/v) mannitol, cloudiness / particulates; for Dispersion in Water Solubility: FCP 1.333 mM in water, vortexed and sonicated, cloudiness (Clear/Cloudy−/Cloudy/Cloudy+) / particulates. The protocol: The solubility of each FCP in water was assessed. Each FCP was dispersed in 300 μl of water to a final concentration of 1.333 mM and vortexed and sonicated. The typical dispersion conditions were four sequences of three minutes bath sonication interspersed by 30 seconds vortexing. After inspection, the resulting solution was diluted with a mannitol solution (a candidate lyophilisation medium, final concentration of peptide 0.167 mM, 1.33% (w/v) mannitol). Solubility was assessed by visual observation of the cloudiness of the resulting dispersion (scaled: Clear/Cloudy−/Cloudy/Cloudy+) and presence of particulates. […]

The format of data set [2] is physicochemical. Particulars: 1.33% mannitol, 0.22 μm PVDF filter; for YIELD % of each FCP following sterile filtration, MIX 1: MIX 1 dispersed in water; for YIELD % of each FCP following sterile filtration, MIX 2: MIX 2 dispersed in water.
The format of data set [3] is physicochemical. Particulars: for Percentage acetic acid (% v/v): minimum concentration for acceptable dispersibility and solubility: FCP 2 μmol/ml after acetic acid dispersion; for Visual appearance after dispersion: at the listed acetic acid concentration, FCP 2 μmol/ml; for Physical stability of formulation at less than 80% (v/v) acetic acid: gel or soluble particulates formed over time. The protocol: In order to limit the concentration of acetic acid downstream in the formulation process and in the final product, the lowest concentration of acetic acid in water to achieve efficient dispersion and maintain visible solubility was determined for each fluorocarbon-linked peptide. When using mannitol as a cryprotectant, it is important to minimize the acetic acid concentration at the lyophilisation stage in order to achieve a stable and amorphous freeze-dried product. The minimum acetic acid concentration to achieve acceptable dispersibility and solubility of the individual fluorocarbon-linked peptides was determined. The final concentration of fluorocarbon-linked peptide after initial acetic acid dispersion was 2 μmol/ml and after dilution with mannitol, 0.250 μmol/ml.

The conditions of data set [4]: for Ease of solubility, Cycle 1 Vortexing: 10 mg net/ml in 10% (FCP1, 2, 4, 5) or 80% (FCP9, 8) acetic acid; for Ease of solubility, Cycle 1 Sonication / Ease of solubility, Cycle 2 Sonication / Ease of solubility, Cycle 2 Vortexing / Ease of solubility, Cycle 3 Sonication / Ease of solubility, Cycle 3 Vortexing: 10 mg net/ml in 10% or 80% acetic acid; for Visual appearance after dispersion: 10 mg net/ml in AcOH 10% or 80%.

Entries after “also recorded” stand apart in the source; their conditions may differ. Read-outs that look alike come from different tables or passages of the source. Residues, ends and D or L forms follow the SMILES beside them. *: point of attachment. Propanoyl(3-C8F17) = O=C(CCC(F)(F)C(F)(F)C(F)(F)C(F)(F)C(F)(F)C(F)(F)C(F)(F)C(F)(F)F)*

For `CC[C@H](C)[C@H](NC(=O)[C@H](C)NC(=O)[C@H](CCSC)NC(=O)[C@H](Cc1c[nH]cn1)NC(=O)[C@@H](N)CCCCNC(=O)CCC(F)(F)C(F)(F)C(F)(F)C(F)(F)C(F)(F)C(F)(F)C(F)(F)C(F)(F)F)C(=O)N[C@H](C(=O)N[C@@H](CCCCN)C(=O)N[C@@H](CCCCN)C(=O)N[C@@H](Cc1ccc(O)cc1)C(=O)N[C@H](C(=O)N[C@@H](CO)C(=O)NCC(=O)N[C@@H](CCCNC(=N)N)C(=O)N[C@@H](CCC(N)=O)C(=O)N[C@@H](CCC(=O)O)C(=O)N[C@@H](CCCCN)C(=O)N[C@@H](CC(N)=O)C(=O)N1CCC[C@H]1C(=O)N[C@@H](CO)C(=O)N[C@@H](CC(C)C)C(=O)N[C@@H](CCCNC(=N)N)C(=O)N[C@@H](CCSC)C(=O)N[C@@H](CCCCN)C(=O)N[C@@H](Cc1c[nH]c2ccccc12)C(=O)N[C@@H](CCSC)C(=O)N[C@@H](CCSC)C(=O)N[C@@H](C)C(=O)N[C@@H](CCSC)C(=O)N[C@@H](CCCCN)C(=O)N[C@@H](Cc1ccc(O)cc1)C(=O)N1CCC[C@H]1C(=O)N[C@H](C(=O)N[C@H](C(=O)N[C@@H](C)C(=O)N[C@@H](CC(=O)O)C(=O)N[C@@H](CCCCN)C(N)=O)[C@@H](C)O)[C@@H](C)CC)[C@@H](C)O)[C@@H](C)CC` [FCP1], in data set [1], the “Further dilution in Mannitol:Water Solubility” value (“Further dilution” below) is given as “partially soluble; also recorded: Clear/Particulates” and the “Dispersion in Water Solubility” value is on record as “Cloudy/Particulates”. Moreover, the “YIELD % of each FCP following sterile filtration, MIX 1” value (“YIELD % … MIX 1” below) in data set [2] came to 89.9%. Further, in data set [3], the “Percentage acetic acid (% v/v): minimum concentration for acceptable dispersibility and solubility” value (shortened to “Percentage acetic acid (% v/v)”) was determined as 10 % v/v; the “Visual appearance after dispersion” value was “Clear”. For the same compound, in data set [4], the “Ease of solubility, Cycle 1 Vortexing” value is “Clear”; the “Ease of solubility, Cycle 1 Sonication” value is “Clear”; the “Ease of solubility, Cycle 2 Sonication” value was “Clear”; the “Ease of solubility, Cycle 2 Vortexing” value is “Clear”. Moreover, in data set [4], the “Ease of solubility, Cycle 3 Sonication” value was “Clear”; the “Ease of solubility, Cycle 3 Vortexing” value was “Clear”; the “Visual appearance after dispersion” value is on record as “Clear”.
Turning to `CC[C@H](C)[C@H](NC(=O)[C@H](CC(C)C)NC(=O)[C@H](C)NC(=O)[C@H](CO)NC(=O)[C@H](CCCNC(=N)N)NC(=O)[C@H](C)NC(=O)[C@H](CC(C)C)NC(=O)[C@H](Cc1ccccc1)NC(=O)[C@@H](NC(=O)[C@H](CC(C)C)NC(=O)[C@H](CC(=O)O)NC(=O)[C@H](CCC(=O)O)NC(=O)[C@@H](NC(=O)[C@H](CCC(=O)O)NC(=O)[C@H](C)NC(=O)[C@H](CC(N)=O)NC(=O)CNC(=O)[C@@H]1CCCN1C(=O)[C@H](CC(N)=O)NC(=O)[C@H](CCCNC(=N)N)NC(=O)[C@H](CO)NC(=O)[C@H](CCC(=O)O)NC(=O)[C@H](CCCNC(=N)N)NC(=O)[C@@H](NC(=O)[C@H](CCC(N)=O)NC(=O)[C@H](CC(=O)O)NC(=O)[C@@H](N)CCCCNC(=O)CCC(F)(F)C(F)(F)C(F)(F)C(F)(F)C(F)(F)C(F)(F)C(F)(F)C(F)(F)F)C(C)C)[C@@H](C)CC)[C@@H](C)CC)C(=O)N[C@@H](CC(C)C)C(=O)N[C@@H](CCCNC(=N)N)C(=O)NCC(=O)N[C@@H](CO)C(=O)N[C@H](C(=O)N[C@@H](C)C(=O)N[C@@H](Cc1c[nH]cn1)C(=O)N[C@@H](CCCCN)C(=O)N[C@@H](CO)C(N)=O)C(C)C` [FCP4], in data set [1], the “Further dilution” value is given as “fully soluble; also recorded: Clear/No Particulates” and the “Dispersion in Water Solubility” value is “fully soluble; also recorded: Clear/No Particulates”. Besides, in data set [2], the “YIELD % … MIX 1” value stood at 25.1% and the “YIELD % of each FCP following sterile filtration, MIX 2” value turned out to be 82.3%. In data set [3], the “Percentage acetic acid (% v/v)” value is reported as 10 % v/v; the “Visual appearance after dispersion” value is on record as “Clear”. In data set [4], the “Ease of solubility, Cycle 1 Vortexing” value is “Clear”; the “Ease of solubility, Cycle 1 Sonication” value is on record as “Clear”; the “Ease of solubility, Cycle 2 Sonication” value was “Clear”; the “Ease of solubility, Cycle 2 Vortexing” value is reported as “Clear”. For the same compound, in data set [4], the “Ease of solubility, Cycle 3 Sonication” value was “Clear”; the “Ease of solubility, Cycle 3 Vortexing” value is “Clear”; the “Visual appearance after dispersion” value is recorded as “Clear”.
Consider `CC[C@H](C)[C@H](NC(=O)[C@H](CO)NC(=O)[C@H](CC(C)C)NC(=O)[C@@H](NC(=O)[C@H](CC(N)=O)NC(=O)[C@H](CCCNC(=N)N)NC(=O)[C@H](Cc1ccccc1)NC(=O)[C@H](Cc1c[nH]c2ccccc12)NC(=O)[C@H](CCC(=O)O)NC(=O)[C@@H]1CCCN1C(=O)[C@H](CCC(N)=O)NC(=O)[C@H](CC(N)=O)NC(=O)[C@H](CCCNC(=N)N)NC(=O)[C@@H](NC(=O)[C@@H](NC(=O)[C@H](Cc1ccc(O)cc1)NC(=O)[C@@H](N)CCCCNC(=O)CCC(F)(F)C(F)(F)C(F)(F)C(F)(F)C(F)(F)C(F)(F)C(F)(F)C(F)(F)F)[C@@H](C)CC)[C@@H](C)O)C(C)C)C(=O)N[C@@H](C)C(=O)N1CCC[C@H]1C(=O)N[C@H](C(=O)N[C@@H](CCSC)C(=O)N[C@@H](Cc1ccccc1)C(=O)N[C@@H](CO)C(=O)N[C@@H](CC(N)=O)C(=O)N[C@@H](CCCCN)C(=O)N[C@@H](CCSC)C(=O)N[C@@H](C)C(=O)N[C@@H](CCCNC(=N)N)C(=O)N[C@@H](CC(C)C)C(=O)NCC(=O)N[C@@H](CCCCN)C(=O)NCC(=O)N[C@@H](Cc1ccc(O)cc1)C(=O)N[C@@H](CCSC)C(=O)N[C@@H](Cc1ccccc1)C(=O)N[C@@H](CCC(=O)O)C(N)=O)[C@@H](C)CC` [FCP9], for which, in data set [1], the “Further dilution” value is on record as “partially soluble; also recorded: Clear/Particulates” and the “Dispersion in Water Solubility” value was “Cloudy−/Particulates”. Besides, in data set [2], the “YIELD % … MIX 1” value is given as 22.9%. Moreover, in data set [3], the “Percentage acetic acid (% v/v)” value is recorded as 80 % v/v; the “Visual appearance after dispersion” value is recorded as “Clear”; the “Physical stability of formulation at less than 80% (v/v) acetic acid” value is “physically unstable over time”. Moreover, in data set [4], the “Ease of solubility, Cycle 1 Vortexing” value was “Particulates−”; the “Ease of solubility, Cycle 1 Sonication” value is recorded as “Clear”; the “Ease of solubility, Cycle 2 Sonication” value is “Clear”; the “Ease of solubility, Cycle 2 Vortexing” value is reported as “Clear”. In data set [4], the “Ease of solubility, Cycle 3 Sonication” value is “Clear”; the “Ease of solubility, Cycle 3 Vortexing” value was “Clear”; the “Visual appearance after dispersion” value is on record as “Clear”.
As for `CC[C@H](C)[C@H](NC(=O)[C@H](Cc1ccc(O)cc1)NC(=O)[C@@H](NC(=O)[C@H](CO)NC(=O)[C@H](CO)NC(=O)[C@@H](NC(=O)CNC(=O)CNC(=O)[C@H](C)NC(=O)[C@@H](NC(=O)[C@@H]1CCCN1C(=O)[C@H](CC(C)C)NC(=O)[C@H](Cc1ccccc1)NC(=O)[C@H](CCCNC(=N)N)NC(=O)[C@@H](NC(=O)[C@H](CCCCN)NC(=O)[C@H](CCCNC(=N)N)NC(=O)[C@@H](NC(=O)[C@H](CC(C)C)NC(=O)[C@H](CCC(=O)O)NC(=O)[C@H](CCCNC(=N)N)NC(=O)[C@H](CCC(=O)O)NC(=O)[C@H](CC(C)C)NC(=O)[C@H](CCSC)NC(=O)[C@H](Cc1ccc(O)cc1)NC(=O)[C@H](C)NC(=O)[C@@H](NC(=O)[C@@H](N)CCCCNC(=O)CCC(F)(F)C(F)(F)C(F)(F)C(F)(F)C(F)(F)C(F)(F)C(F)(F)C(F)(F)F)C(C)C)C(C)C)[C@@H](C)O)C(C)C)[C@@H](C)O)C(C)C)C(=O)N[C@@H](CCC(=O)O)C(=O)N[C@H](C(=O)N[C@@H](CC(C)C)C(=O)N[C@@H](Cc1c[nH]cn1)C(=O)N[C@@H](CC(C)C)C(=O)N[C@H](C(=O)N[C@@H](CCC(N)=O)C(=O)NCC(N)=O)[C@@H](C)O)C(C)C` [FCP8] (H-K(Propanoyl(3-C8F17))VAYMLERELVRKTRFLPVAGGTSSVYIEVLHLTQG-NH2), in data set [1], the “Further dilution” value is reported as “insoluble; also recorded: Cloudy/Particulates” and the “Dispersion in Water Solubility” value is reported as “Cloudy/Particulates”. Further, in data set [2], the “YIELD % of each FCP following sterile filtration, MIX 2” value came out at 25.3%. Further, in data set [3], the “Percentage acetic acid (% v/v)” value is given as 80 % v/v; the “Visual appearance after dispersion” value is “Clear”; the “Physical stability of formulation at less than 80% (v/v) acetic acid” value is given as “physically unstable over time”. In addition, in data set [4], the “Ease of solubility, Cycle 1 Vortexing” value is given as “Particulates+”; the “Ease of solubility, Cycle 1 Sonication” value is listed as “Some”; the “Ease of solubility, Cycle 2 Vortexing” value was “Some”; the “Ease of solubility, Cycle 3 Sonication” value is recorded as “Clear”. Also, the “Visual appearance after dispersion” value in data set [4] is “Clear”.
